From PubChem BioAssay (NCI)
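Method: 48-hour compound exposure of cells in 96-well plates, five concentrations, linear interpolation of endpoints. TGI denotes the concentration required for complete inhibition of growth.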

What was measured:
Experiment in all cases: inhibition of tumour cell growth, NCI panel, 48 h
HS 578T breast = tested on: HS 578T breast
HOP-92 NSCLC = tested on: HOP-92 NSCLC
PC-3 prostate = tested on: PC-3 prostate
OVCAR-3 ovarian = tested on: OVCAR-3 ovarian
RPMI-8226 leukemia = tested on: RPMI-8226 leukemia
MOLT-4 leukemia = tested on: MOLT-4 leukemia
SF-295 CNS = tested on: SF-295 CNS
UACC-62 melanoma = tested on: UACC-62 melanoma
IGROV1 ovarian = tested on: IGROV1 ovarian
CAKI-1 renal = tested on: CAKI-1 renal
NCI-H23 lung = tested on: NCI-H23 lung

Compound | TGI (HS 578T breast) [µM] | TGI (HOP-92 NSCLC) [µM] | TGI (PC-3 prostate) [µM] | TGI (OVCAR-3 ovarian) [µM] | TGI (RPMI-8226 leukemia) [µM] | TGI (MOLT-4 leukemia) [µM] | TGI (SF-295 CNS) [µM] | TGI (UACC-62 melanoma) [µM] | TGI (IGROV1 ovarian) [µM] | TGI (CAKI-1 renal) [µM] | TGI (NCI-H23 lung) [µM]
Cc1cccc2c1Oc1ccccc1C2NC(=O)c1ccc([N+](=O)[O-])cc1 (stereo unspecified) | 82.6 | > 100 | > 100 | > 100 | > 100 | > 100 | > 100 | > 100 | > 100 | > 100 | > 100
CC1=C2c3c(C)ccc4ccc(C)c(c34)C2(O)C(C)C1=O (stereo unspecified) | > 100 | > 100 | > 100 | > 100 | > 100 | > 100 |  | > 100 | > 100 | > 100 | 
COc1ccc(/C=C2\C[C@H]3[C@@H]4CCC5=C[C@@H](N6CCCC6)CC[C@]5(C)[C@H]4CC[C@]3(C)[C@H]2O)cc1 | 8.66 | 9.51 | 8.17 | 8.26 | > 29.2 | > 45.4 | 5.52 | 3.28 | 20 | 14.6 | 16.3
CC(C)(C)N(Cc1ccc2c(c1)OCO2)C(=O)/C=C\S(=O)c1ccccc1 (stereo unspecified) | 6.36 | 8.18 | 9.71 | 7.4 | 9.54 | > 45.4 | 22.9 | 13.6 | 13.3 | 15.1 | 8.79
CC1(c2nc3cc(Cl)c(Cl)cc3[nH]2)CCC(CO)C(C)(C)O1 (stereo unspecified) | 53.9 | > 100 | 97.3 | 74.3 | > 100 | > 100 | 95.3 | 39.2 | 77.6 | > 100 | 76.4
N#CCCN(CCC#N)c1ccc(C(N=Nc2ccccc2)=Nc2ccccc2)cc1 | > 100 | > 100 | > 100 | > 100 | > 100 | > 100 | > 100 | > 100 | > 100 | > 100 | > 100
O=C1CN2Cc3cc(N4CCOCC4)ccc3N=C2N1 | > 100 | > 100 | > 100 | > 100 | > 100 | > 100 | > 100 | > 100 | > 100 | > 100 | > 100
CC1=C2C(=O)[C@H]3[C@@H](CC=C4C[C@@H](O)CC[C@@]43C)[C@@H]2CC[C@]12O[C@@H]1C[C@H](C)CN[C@H]1[C@H]2C | > 100 | 26.6 | > 100 | > 56 | > 100 | > 100 | > 58.7 | > 92.3 | > 96.4 | > 59.2 | > 58
COc1ccc(N=C(C)c2ccncc2)cc1 | > 100 | > 100 | > 100 | > 100 | > 100 | > 100 | > 100 | > 100 | > 100 | > 100 | > 100
CCCCCCOc1ccc(C(=O)NOCc2ccccc2)cc1 | > 100 | > 100 | > 100 | > 100 | > 100 | > 100 | > 100 | > 100 | > 100 | > 100 | > 100
O=[N+]([O-])c1ccc(C2=NOC(c3ccccc3F)N2C23CC4CC(CC(C4)C2)C3)cc1 (stereo unspecified) | > 100 | > 100 | > 100 | > 100 | > 100 | > 100 | > 100 | > 100 | > 100 | > 100 | > 100
CC1(C)C(=O)C(C)(C)C12SSC1(S2)C(C)(C)C(=O)C1(C)C | > 100 | > 100 | > 100 | > 100 | > 100 | > 100 | > 100 | > 100 | > 100 | > 100 | > 100
CCOc1ccc(/C(O)=C/c2nc3ccccc3nc2/C=C(\O)c2ccc(OCC)cc2)cc1 | > 100 | > 100 | > 100 | > 100 | > 100 | > 100 | > 100 | > 100 | > 100 | > 100 | > 100
CC(C)NC(=O)CN1CCN(C2=CC(=O)c3c(O)ccc(O)c3C2=O)CC1 | 62.5 | 38.3 | > 80.5 | 6.56 | > 100 | > 100 | 32.6 | 13.3 | 28.4 | > 60.7 | 24.3
CC1(C)CC(=O)C2=C(C1)c1c(ccc3ccccc13)NC2c1cn(Cc2ccc(Cl)cc2)c2ccccc12 (stereo unspecified) | > 100 | > 100 | > 100 | > 100 | > 100 | > 100 | > 100 | > 100 | > 100 | > 100 | > 100
COc1ccc(-c2csc(=Nc3ccccc3)n2CC(O)c2ccc([N+](=O)[O-])cc2)cc1 (stereo unspecified) | > 100 | > 100 | > 100 | > 100 | > 100 | > 100 | > 100 | > 100 | > 100 | > 100 | > 100
O=C(O)C1CCCN1Cc1cc2ccccc2c2ccccc12 (stereo unspecified) | > 100 | > 100 | > 100 | > 100 | > 100 | > 100 | > 100 | > 100 | > 100 | > 100 | > 100
CC1(C23CC4CC(CC(C4)C2)C3)n2c(=O)n(-c3ccccc3)c(=O)n2C1(C)C12CC3CC(CC(C3)C1)C2 (stereo unspecified) | > 100 | > 100 | > 100 | > 100 | > 100 | > 100 | > 100 | > 100 | > 100 | > 100 | > 100
